ChEMBL document CHEMBL1122223, “New developments in Ca2+ channel antagonists” (J Med Chem, 1983)

Tests used:
[1] = Dissociation constant for high affinity binding sites in intact cultured cardiac cells
[2] = Dissociation constant for low affinity binding sites in intact cultured cardiac cells
Cavia porcellus [3] = species: Cavia porcellus; assay: [Ca2+] antagonistic activity on [Ca2+] current in guinea pig single ventricular cells; format: functional; settings: read-out: ID50 (the source's name)
PC-12 = assay: Ability to block depolarization induced 45Ca uptake into pheochromocytoma PC12 cells; format: functional, cell-based; settings: Rattus norvegicus
Rattus norvegicus [4] = species: Rattus norvegicus; assay: Effective concentration for negative inotropic effect; format: functional, organism-based
[5] = Dissociation constant for binding to isolated membranes from clonal cell line
Canis familiaris [6] = species: Canis familiaris; assay: Antagonistic activity against norepinephrine induced contraction in canine coronary; format: functional, Canis lupus familiaris
Cavia porcellus [7] = species: Cavia porcellus; assay: [Ca2+] antagonistic activity on contraction in guinea pig atria.; format: functional; settings: read-out: ID50 (the source's name)
Oryctolagus cuniculus [8] = species: Oryctolagus cuniculus; assay: Inhibition of [Ca2+] uptake in rabbit aorta, K+.; format: functional; settings: read-out: ID50 (the source's name)
Oryctolagus cuniculus [9] = species: Oryctolagus cuniculus; assay: Inhibition of contraction in rabbit aorta, K+.; format: functional; settings: read-out: ID50 (the source's name)
Canis familiaris [10] = species: Canis familiaris; assay: Antagonistic activity against K+ induced responses in canine coronary.; format: functional, Canis lupus familiaris
Oryctolagus cuniculus [11] = species: Oryctolagus cuniculus; assay: Antagonistic activity against 5-HT in rabbit saphenous; format: functional, Saphenous vein
Oryctolagus cuniculus [12] = species: Oryctolagus cuniculus; assay: Antagonistic activity against 5-HT induced responses in rabbit basilar; format: functional
Oryctolagus cuniculus [13] = species: Oryctolagus cuniculus; assay: Antagonistic activity against K+ induced responses in rabbit basilar.; format: functional
Oryctolagus cuniculus [14] = species: Oryctolagus cuniculus; assay: Antagonistic activity against K+ induced responses in rabbit saphenous; format: functional, Saphenous vein
Felis catus [15] = species: Felis catus; assay: [Ca2+] antagonistic activity on [Ca2+] current in cat papillary.; format: functional, Papillary muscle
Felis catus [16] = species: Felis catus; assay: [Ca2+] antagonistic activity on [Ca2+] current in cat ventricular trabeculae; format: functional
Cavia porcellus [17] = species: Cavia porcellus; assay: Antagonistic activity against K+ induced responses in guinea pig ileum.; format: functional; settings: read-out: ID50 (the source's name)
Cavia porcellus [18] = species: Cavia porcellus; assay: Antagonistic activity against ACh in guinea pig ileum.; format: functional; settings: read-out: ID50 (the source's name)
Canis familiaris [19] = species: Canis familiaris; assay: Antagonistic activity against ACh induced responses in canine trachea; format: functional; settings: Canis lupus familiaris, read-out: ID50 (the source's name)
Canis familiaris [20] = species: Canis familiaris; assay: Antagonistic activity against K+ induced responses in canine trachea.; format: functional; settings: Canis lupus familiaris, read-out: ID50 (the source's name)
Oryctolagus cuniculus [21] = species: Oryctolagus cuniculus; assay: Inhibition of [Ca2+] uptake in rabbit pulmonary artery, K+.; format: functional; settings: read-out: ID50 (the source's name)
Oryctolagus cuniculus [22] = species: Oryctolagus cuniculus; assay: Inhibition of contraction in rabbit pulmonary artery, K+.; format: functional; settings: read-out: ID50 (the source's name)
Oryctolagus cuniculus [23] = species: Oryctolagus cuniculus; assay: Antagonistic activity against K+ induced responses in rabbit aorta; format: functional; settings: read-out: ID50 (the source's name)
Oryctolagus cuniculus [24] = species: Oryctolagus cuniculus; assay: Antagonistic activity against norepinephrine (NE) induced responses in rabbit aorta; format: functional; settings: read-out: ID50 (the source's name)
Rattus norvegicus [25] = species: Rattus norvegicus; assay: Inhibition of [Ca2+] uptake in rat aorta, K+.; settings: read-out: ID50
Rattus norvegicus [26] = species: Rattus norvegicus; assay: Inhibition of contraction in rat aorta, K+.; settings: read-out: ID50

CCOC(=O)C1=C(C)NC(C)=C(C(=O)OC)C1c1cccc([N+](=O)[O-])c1 (stereo not given) [NITRENDIPINE]
Kd [1]: 0.00026 µM
Kd [2]: 0.016 µM
IC50 (Cavia porcellus [3]): 0.2 µM
IC50 (PC-12): 0.01 µM
EC50 (Rattus norvegicus [4]): 0.028 µM
Kd [5]: 0.01 µM

COc1ccc(CCN(C)CCCC(C#N)(c2cc(OC)c(OC)c(OC)c2)C(C)C)cc1OC (stereo not given) [GALLOPAMIL]
ID50 (Canis familiaris [6]): 0.5 µM
IC50 (Cavia porcellus [7]): < 1 µM
IC50 (Oryctolagus cuniculus [8]): 0.15 µM
IC50 (Oryctolagus cuniculus [9]): 0.2 µM
ID50 (Canis familiaris [10]): 0.2 µM

COc1ccc([C@@H]2Sc3ccccc3N(CCN(C)C)C(=O)[C@@H]2OC(C)=O)cc1 [DILTIAZEM]
IC50 (Oryctolagus cuniculus [8]): 0.3 µM
IC50 (Oryctolagus cuniculus [9]): 0.5 µM

COCCOC(=O)C1=C(C)NC(C)=C(C(=O)OC(C)C)C1c1cccc([N+](=O)[O-])c1 (stereo not given) [NIMODIPINE]
ID50 (Oryctolagus cuniculus [11]): >0.0001 M
ID50 (Oryctolagus cuniculus [12]): 0.0007 µM
ID50 (Oryctolagus cuniculus [13]): 0.0002 µM
ID50 (Oryctolagus cuniculus [14]): 0.0003 µM

COC(=O)C1=C(C)NC(C)=C(C(=O)OC)C1c1ccccc1[N+](=O)[O-] [NIFEDIPINE]
ID50 (Felis catus [15]): 0.6 µM
ID50 (Felis catus [16]): 0.6 µM
IC50 (Cavia porcellus [17]): 0.003 µM
IC50 (Cavia porcellus [7]): 1 µM
IC50 (Cavia porcellus [18]): 0.005 µM

COc1ccc(CCN(C)CCCC(C#N)(c2ccc(OC)c(OC)c2)C(C)C)cc1OC (stereo not given) [VERAPAMIL]
ID50 (Felis catus [16]): <10 µM
IC50 (Canis familiaris [19]): > 1000 µM
IC50 (Canis familiaris [20]): < 1000 µM
IC50 (Oryctolagus cuniculus [8]): 0.0068 µM
IC50 (Oryctolagus cuniculus [21]): 0.3 µM
IC50 (Oryctolagus cuniculus [9]): 0.17 µM
IC50 (Oryctolagus cuniculus [22]): 0.4 µM
IC50 (Oryctolagus cuniculus [23]): 0.03 µM
IC50 (Oryctolagus cuniculus [24]): 100 µM

Fc1ccc(C(c2ccc(F)cc2)N2CCN(C/C=C/c3ccccc3)CC2)cc1 [FLUNARIZINE]
IC50 (Rattus norvegicus [25]): 0.18 µM
IC50 (Rattus norvegicus [26]): 0.22 µM

COC(=O)C1=C(C)NC(C)=C(C(=O)OCCN(C)Cc2ccccc2)C1c1cccc([N+](=O)[O-])c1 (stereo not given) [NICARDIPINE]
IC50 (Oryctolagus cuniculus [8]): 0.001 µM
IC50 (Oryctolagus cuniculus [9]): 0.0019 µM
